# Measured values: patent US20260226031A1, “NOVEL COMPOUNDS” (NRG THERAPEUTICS LTD., priority 2023, published 2026)
# Columns and labels:
# mPTP [1] = assay: mPTP activity (Ca2+ retention) assay in isolated rat liver mitochondria; assay type: biochemical; conditions: isolated rat liver mitochondria; Fluo5N fluorescence at 10 min after CaCl2 (75 μM) bolus; DMSO 0%, 5 μM cyclosporin A 100% inhibition
# Outline: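 Freshly isolated female Sprague Dawley rat liver mitochondria with succinate, rotenone and Fluo5N were preincubated 10 min at RT with compounds (final 30 μM to 1 nM), then challenged with CaCl2. Fluorescence at 10 min gave % inhibition versus DMSO (0%) and 5 μM cyclosporin A (100%); pIC50 calculated.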
# mPTP [2] = assay: mPTP activity (Ca2+ retention) assay in isolated rat brain mitochondria; assay type: biochemical; conditions: isolated rat brain mitochondria; Fluo5N fluorescence at 10 min after Ca2+ (75 μM) bolus
# Outline: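 Mitochondria freshly isolated from brains of perfused female Sprague Dawley rats, digitonin-treated, in pH 7.4 mannitol/MOPS/KCl buffer with pyruvate, malate, ADP and oligomycin A. Incubated with compound 10 min at RT with 2 μM Fluo5N. Fluorescence then read every 3 s for 10 min.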
mPTP Rat liver pIC50* (mPTP [1]),mPTP Rat brain pIC50 (mPTP [2]),SMILES
6.17,7.22,"O=C(c1cc(O)no1)N1CC(c2ccccc2)C2(CCC2)C1 (single isomer, unassigned) [Example 23a, (3-hydroxyisoxazol-5-yl)(8-phenyl-6-azaspiro[3.4]octan-6-yl)methanone]"
5.80,6.90,"O=C(c1cncc(O)n1)N1CC(c2ccccc2)C2(CCC2)C1 (stereo not drawn) [Example 2, (6-hydroxypyrazin-2-yl)(8-phenyl-6-azaspiro[3.4]octan-6-yl)methanone]"
4.59,<4.52,"O=C(c1cncc(O)n1)N1CC(c2ccccc2)C2(CCC2)C1 (single isomer, unassigned) [Example 6b, (6-hydroxypyrazin-2-yl)(8-phenyl-6-azaspiro[3.4]octan-6-yl)methanone]"
